Experimental data as given in patent US7786141B2 (Vertex Pharmaceuticals Incorporated, priority 2004, dated 2010).

Columns and labels:
M1 muscarinic receptor = biological target: T1, M1 muscarinic receptor (Homo sapiens, UniProt P11229); assay: Functional mobilization of intracellular calcium (FLIPR) in M1-CHO cells; type: cell-based; conditions: Table 4; for Emax: 100% efficacy is the maximum response obtained with the Carbachol control; for M1 Activity: M1 receptor, calcium mobilization (FLIPR)
T1 construct: expressed in transfected cells; host or cells: CHO (M1-CHO)
T1 sequence (P11229 1-460): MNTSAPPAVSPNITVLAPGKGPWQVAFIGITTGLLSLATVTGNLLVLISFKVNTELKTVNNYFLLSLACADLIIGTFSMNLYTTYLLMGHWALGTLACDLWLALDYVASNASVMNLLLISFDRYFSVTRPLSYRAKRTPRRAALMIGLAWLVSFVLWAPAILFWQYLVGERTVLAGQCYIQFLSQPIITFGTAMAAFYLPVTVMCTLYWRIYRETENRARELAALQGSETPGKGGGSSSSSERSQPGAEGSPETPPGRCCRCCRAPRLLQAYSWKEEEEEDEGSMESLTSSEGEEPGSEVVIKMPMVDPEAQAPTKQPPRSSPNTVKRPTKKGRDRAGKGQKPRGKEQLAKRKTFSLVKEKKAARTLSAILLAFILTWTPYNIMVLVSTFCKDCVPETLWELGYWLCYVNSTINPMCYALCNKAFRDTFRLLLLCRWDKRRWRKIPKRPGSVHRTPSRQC
Outline: (§1)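 Measured via Fluo-3 fluorescence on a FLIPR, CHO cells with either muscarinic subtype received compound in 0.5% DMSO. Antagonism was assessed after 15 min pre-incubation followed by carbachol at each subtype's EC80; agonism from compound addition alone.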

M4 muscarinic receptor = biological target: T2, M4 muscarinic receptor (Homo sapiens, UniProt P08173); assay: Functional mobilization of intracellular calcium (FLIPR) in M4-CHO cells; type: cell-based; conditions: Table 4; for Emax: 100% efficacy is the maximum response obtained with the Carbachol control; for M4 Activity: M4 receptor, calcium mobilization (FLIPR)
T2 construct: expressed in transfected cells; host or cells: CHO (M4-CHO)
T2 sequence (P08173 1-479): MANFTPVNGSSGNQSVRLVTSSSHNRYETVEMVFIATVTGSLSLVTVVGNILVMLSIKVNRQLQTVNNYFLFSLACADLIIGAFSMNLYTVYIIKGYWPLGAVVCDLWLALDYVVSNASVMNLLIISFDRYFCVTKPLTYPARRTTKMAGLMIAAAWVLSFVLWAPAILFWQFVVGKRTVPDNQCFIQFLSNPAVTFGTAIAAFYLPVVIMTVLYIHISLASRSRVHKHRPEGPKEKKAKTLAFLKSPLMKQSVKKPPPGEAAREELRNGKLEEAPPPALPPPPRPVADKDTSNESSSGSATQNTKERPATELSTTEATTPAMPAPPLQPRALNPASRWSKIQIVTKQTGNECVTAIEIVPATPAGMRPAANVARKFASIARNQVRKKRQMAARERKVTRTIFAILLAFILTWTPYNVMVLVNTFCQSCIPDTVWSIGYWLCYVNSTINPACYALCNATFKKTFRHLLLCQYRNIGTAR
Outline: as §1

CC(=O)N1CC2(CCN(C3CCN(c4cncc(CC(C)C)n4)CC3)CC2)c2ccccc21 [compound 893]
Emax (M1 muscarinic receptor): < 25% | M1 Activity (M1 muscarinic receptor): x (activity was measured to be greater than 5.0 μM) | Emax (M4 muscarinic receptor): < 25% | M4 Activity (M4 muscarinic receptor): x (activity was measured to be greater than 5.0 μM)

CC(=O)N1CC2(CCN(C3CCN(c4nccs4)CC3)CC2)c2ccccc21 [compound 894]
Emax (M1 muscarinic receptor): 25 to 100% | M1 Activity (M1 muscarinic receptor): x (activity was measured to be greater than 5.0 μM) | Emax (M4 muscarinic receptor): < 25% | M4 Activity (M4 muscarinic receptor): x (activity was measured to be greater than 5.0 μM)

CN(C)C(=O)N1CC2(CCN(C3CCN(c4cnccn4)CC3)CC2)c2cc(F)ccc21 [compound 895]
Emax (M1 muscarinic receptor): 25 to 100% | M1 Activity (M1 muscarinic receptor): xxx (activity was measured to be less than 2.0 μM) | Emax (M4 muscarinic receptor): 25 to 100% | M4 Activity (M4 muscarinic receptor): xxx (activity was measured to be less than 2.0 μM)

CCOC(=O)N1CCC(N2CCC3(CC2)CN(c2ccc(OC)nn2)c2ccc(F)cc23)CC1 [compound 896]
Emax (M1 muscarinic receptor): 25 to 100% | M1 Activity (M1 muscarinic receptor): xxx (activity was measured to be less than 2.0 μM) | Emax (M4 muscarinic receptor): 25 to 100% | M4 Activity (M4 muscarinic receptor): xxx (activity was measured to be less than 2.0 μM)

CCOC(=O)N1C2CCC1CC(N1CCC3(CC1)CN(C(C)=O)c1c(F)cc(F)cc13)C2 (stereo not shown) [compound 897]
Emax (M1 muscarinic receptor): 25 to 100% | M1 Activity (M1 muscarinic receptor): xxx (activity was measured to be less than 2.0 μM) | Emax (M4 muscarinic receptor): 25 to 100% | M4 Activity (M4 muscarinic receptor): xxx (activity was measured to be less than 2.0 μM)

Cc1cc(C(=O)N2CCC(N3CCC4(CC3)CN(C(=O)N(C)C)c3ccc(F)cc34)CC2)nn1C [compound 898]
Emax (M1 muscarinic receptor): < 25% | M1 Activity (M1 muscarinic receptor): x (activity was measured to be greater than 5.0 μM) | Emax (M4 muscarinic receptor): < 25% | M4 Activity (M4 muscarinic receptor): x (activity was measured to be greater than 5.0 μM)

CN(C)C(=O)N1CC2(CCN(C3CCN(C(=O)c4ccoc4)CC3)CC2)c2cc(F)ccc21 [compound 900]
Emax (M1 muscarinic receptor): < 25% | M1 Activity (M1 muscarinic receptor): xx (activity was measured to be between 2.0 μM and 5.0 μM) | Emax (M4 muscarinic receptor): < 25% | M4 Activity (M4 muscarinic receptor): x (activity was measured to be greater than 5.0 μM)

O=C1CC2(CCN([C@@H]3C[C@H]4CC[C@@H]3C4)CC2)c2ccc(Cl)cc21 [compound 901]
Emax (M1 muscarinic receptor): 25 to 100% | M1 Activity (M1 muscarinic receptor): xx (activity was measured to be between 2.0 μM and 5.0 μM) | Emax (M4 muscarinic receptor): 25 to 100% | M4 Activity (M4 muscarinic receptor): xx (activity was measured to be between 2.0 μM and 5.0 μM)

CCOC(=O)N1CC2(CCN(C3CC4CCC3C4)CC2)c2cc(C)ccc21 (stereo not shown) [compound 902]
Emax (M1 muscarinic receptor): 25 to 100% | M1 Activity (M1 muscarinic receptor): x (activity was measured to be greater than 5.0 μM) | Emax (M4 muscarinic receptor): < 25% | M4 Activity (M4 muscarinic receptor): x (activity was measured to be greater than 5.0 μM)

CCOC(=O)N1CCC(N2CCC3(CC2)CN(C(=O)N2CCOCC2)c2ccccc23)CC1 [compound 903]
Emax (M1 muscarinic receptor): 25 to 100% | M1 Activity (M1 muscarinic receptor): xx (activity was measured to be between 2.0 μM and 5.0 μM) | Emax (M4 muscarinic receptor): 25 to 100% | M4 Activity (M4 muscarinic receptor): xxx (activity was measured to be less than 2.0 μM)

O=C(O)C1CC2(CCN(C3CC4CCC3C4)CC2)c2ccccc21 (stereo not shown) [compound 904]
Emax (M1 muscarinic receptor): < 25% | M1 Activity (M1 muscarinic receptor): x (activity was measured to be greater than 5.0 μM) | Emax (M4 muscarinic receptor): < 25% | M4 Activity (M4 muscarinic receptor): x (activity was measured to be greater than 5.0 μM)

CCOC(=O)N1CCC(N2CCC3(CC2)CN(c2cncnc2)c2ccccc23)CC1 [compound 905]
Emax (M1 muscarinic receptor): 25 to 100% | M1 Activity (M1 muscarinic receptor): xxx (activity was measured to be less than 2.0 μM) | Emax (M4 muscarinic receptor): 25 to 100% | M4 Activity (M4 muscarinic receptor): xxx (activity was measured to be less than 2.0 μM)

CCOC(=O)N1CCC(N2CCC3(CC2)CN(C(C)=O)c2c(-c4cccc(C)c4)cccc23)CC1 [compound 907]
Emax (M1 muscarinic receptor): 25 to 100% | M1 Activity (M1 muscarinic receptor): x (activity was measured to be greater than 5.0 μM) | Emax (M4 muscarinic receptor): < 25% | M4 Activity (M4 muscarinic receptor): x (activity was measured to be greater than 5.0 μM)

CCOC(=O)N1CCC(N2CCC3(CC2)CN(c2ccc(OC)cc2)c2ccc(F)cc23)CC1 [compound 908]
Emax (M1 muscarinic receptor): 25 to 100% | M1 Activity (M1 muscarinic receptor): xxx (activity was measured to be less than 2.0 μM) | Emax (M4 muscarinic receptor): 25 to 100% | M4 Activity (M4 muscarinic receptor): xxx (activity was measured to be less than 2.0 μM)

CCCOC(=O)N1CCC(N2CCC3(CC2)CN(C(C)=O)c2ccccc23)CC1 [compound 910]
Emax (M1 muscarinic receptor): 25 to 100% | M1 Activity (M1 muscarinic receptor): xxx (activity was measured to be less than 2.0 μM) | Emax (M4 muscarinic receptor): < 25% | M4 Activity (M4 muscarinic receptor): xx (activity was measured to be between 2.0 μM and 5.0 μM)

CCOC(=O)N1CCC(N2CCC3(CC2)CN(C(C)=O)c2c(-c4ccccc4C)cccc23)CC1 [compound 911]
Emax (M1 muscarinic receptor): < 25% | M1 Activity (M1 muscarinic receptor): x (activity was measured to be greater than 5.0 μM) | Emax (M4 muscarinic receptor): < 25% | M4 Activity (M4 muscarinic receptor): x (activity was measured to be greater than 5.0 μM)

CC(=O)N[C@H]1CCC2(CCN(C3CCN(C(=O)OC(C)(C)C)CC3)CC2)c2ccccc21 [compound 912]
Emax (M1 muscarinic receptor): 25 to 100% | M1 Activity (M1 muscarinic receptor): xxx (activity was measured to be less than 2.0 μM) | Emax (M4 muscarinic receptor): < 25% | M4 Activity (M4 muscarinic receptor): x (activity was measured to be greater than 5.0 μM)

CC(=O)N1CC2(CCN(C[C@@H]3CCN(c4cnccn4)C3)CC2)c2c(C)cccc21 [compound 913]
Emax (M1 muscarinic receptor): 25 to 100% | M1 Activity (M1 muscarinic receptor): x (activity was measured to be greater than 5.0 μM) | Emax (M4 muscarinic receptor): < 25% | M4 Activity (M4 muscarinic receptor): x (activity was measured to be greater than 5.0 μM)

CN(C)C(=O)N1CC2(CCN(C3CCN(c4cnc5ccccc5n4)CC3)CC2)c2cc(F)ccc21 [compound 914]
Emax (M1 muscarinic receptor): 25 to 100% | M1 Activity (M1 muscarinic receptor): xxx (activity was measured to be less than 2.0 μM) | Emax (M4 muscarinic receptor): 25 to 100% | M4 Activity (M4 muscarinic receptor): xxx (activity was measured to be less than 2.0 μM)

O=C1CC2(CCN(CC3CC4C=CC3C4)CC2)c2ccc(Cl)cc21 (stereo not shown) [compound 915]
Emax (M1 muscarinic receptor): 25 to 100% | M1 Activity (M1 muscarinic receptor): x (activity was measured to be greater than 5.0 μM) | Emax (M4 muscarinic receptor): 25 to 100% | M4 Activity (M4 muscarinic receptor): x (activity was measured to be greater than 5.0 μM)

CC(=O)N1CC2(CCN(C3CCC3)CC2)c2cc(F)ccc21 [compound 916]
Emax (M1 muscarinic receptor): < 25% | M1 Activity (M1 muscarinic receptor): x (activity was measured to be greater than 5.0 μM) | Emax (M4 muscarinic receptor): < 25% | M4 Activity (M4 muscarinic receptor): x (activity was measured to be greater than 5.0 μM)

COc1ccc(C(=O)N2CCC(N3CCC4(CC3)CN(C(=O)N(C)C)c3ccc(F)cc34)CC2)cc1 [compound 917]
Emax (M1 muscarinic receptor): < 25% | M1 Activity (M1 muscarinic receptor): x (activity was measured to be greater than 5.0 μM) | Emax (M4 muscarinic receptor): < 25% | M4 Activity (M4 muscarinic receptor): x (activity was measured to be greater than 5.0 μM)

CCOC(=O)N1CCC(N2CCC3(CC2)CN(C(C)=O)c2c(C4CCCC4)cccc23)CC1 [compound 918]
Emax (M1 muscarinic receptor): 25 to 100% | M1 Activity (M1 muscarinic receptor): x (activity was measured to be greater than 5.0 μM) | Emax (M4 muscarinic receptor): < 25% | M4 Activity (M4 muscarinic receptor): x (activity was measured to be greater than 5.0 μM)

CC(C)C1CCC(N2CCC3(CC2)CC(C(=O)O)c2ccccc23)CC1 (stereo not shown) [compound 919]
Emax (M1 muscarinic receptor): < 25% | M1 Activity (M1 muscarinic receptor): x (activity was measured to be greater than 5.0 μM) | Emax (M4 muscarinic receptor): < 25% | M4 Activity (M4 muscarinic receptor): x (activity was measured to be greater than 5.0 μM)

CN(C)C(=O)N1CC2(CCN(C3CCCN(C(=O)OCC(F)F)CC3)CC2)c2cc(F)ccc21 (stereo not shown) [compound 920]
Emax (M1 muscarinic receptor): 25 to 100% | M1 Activity (M1 muscarinic receptor): xxx (activity was measured to be less than 2.0 μM) | Emax (M4 muscarinic receptor): 25 to 100% | M4 Activity (M4 muscarinic receptor): xxx (activity was measured to be less than 2.0 μM)

CC(F)CC(=O)N1CCC(N2CCC3(CC2)CN(C(=O)N(C)C)c2ccc(F)cc23)CC1 (stereo not shown) [compound 921]
Emax (M1 muscarinic receptor): 25 to 100% | M1 Activity (M1 muscarinic receptor): x (activity was measured to be greater than 5.0 μM) | Emax (M4 muscarinic receptor): < 25% | M4 Activity (M4 muscarinic receptor): x (activity was measured to be greater than 5.0 μM)

CC(=O)NC1CC2(CCN(C3CCCC3)CC2)c2ccccc21 (stereo not shown) [compound 922]
Emax (M1 muscarinic receptor): 25 to 100% | M1 Activity (M1 muscarinic receptor): x (activity was measured to be greater than 5.0 μM) | Emax (M4 muscarinic receptor): 25 to 100% | M4 Activity (M4 muscarinic receptor): x (activity was measured to be greater than 5.0 μM)

COC(=O)N1CC[C@@H](CN2CCC3(CC2)CN(C(C)=O)c2ccccc23)C1 [compound 923]
Emax (M1 muscarinic receptor): 25 to 100% | M1 Activity (M1 muscarinic receptor): xx (activity was measured to be between 2.0 μM and 5.0 μM) | Emax (M4 muscarinic receptor): 25 to 100% | M4 Activity (M4 muscarinic receptor): xxx (activity was measured to be less than 2.0 μM)
